Test results from ChEMBL document CHEMBL4342518, “First Contact: 7-Phenyl-2-Aminoquinolines, Potent and Selective Neuronal Nitric Oxide Synthase Inhibitors That Target an Isoform-Specific Aspartate” (J Med Chem, 2020).

Tests used:
[1] = molecular target: Nitric oxide synthase, inducible (Homo sapiens, UniProt P35228)
in vitro [2] = settings: human, liver microsomes
Nitric oxide synthase 3 = molecular target: T1, Nitric oxide synthase 3 (Homo sapiens, UniProt P29474)
T1 sequence (P29474 whole entry): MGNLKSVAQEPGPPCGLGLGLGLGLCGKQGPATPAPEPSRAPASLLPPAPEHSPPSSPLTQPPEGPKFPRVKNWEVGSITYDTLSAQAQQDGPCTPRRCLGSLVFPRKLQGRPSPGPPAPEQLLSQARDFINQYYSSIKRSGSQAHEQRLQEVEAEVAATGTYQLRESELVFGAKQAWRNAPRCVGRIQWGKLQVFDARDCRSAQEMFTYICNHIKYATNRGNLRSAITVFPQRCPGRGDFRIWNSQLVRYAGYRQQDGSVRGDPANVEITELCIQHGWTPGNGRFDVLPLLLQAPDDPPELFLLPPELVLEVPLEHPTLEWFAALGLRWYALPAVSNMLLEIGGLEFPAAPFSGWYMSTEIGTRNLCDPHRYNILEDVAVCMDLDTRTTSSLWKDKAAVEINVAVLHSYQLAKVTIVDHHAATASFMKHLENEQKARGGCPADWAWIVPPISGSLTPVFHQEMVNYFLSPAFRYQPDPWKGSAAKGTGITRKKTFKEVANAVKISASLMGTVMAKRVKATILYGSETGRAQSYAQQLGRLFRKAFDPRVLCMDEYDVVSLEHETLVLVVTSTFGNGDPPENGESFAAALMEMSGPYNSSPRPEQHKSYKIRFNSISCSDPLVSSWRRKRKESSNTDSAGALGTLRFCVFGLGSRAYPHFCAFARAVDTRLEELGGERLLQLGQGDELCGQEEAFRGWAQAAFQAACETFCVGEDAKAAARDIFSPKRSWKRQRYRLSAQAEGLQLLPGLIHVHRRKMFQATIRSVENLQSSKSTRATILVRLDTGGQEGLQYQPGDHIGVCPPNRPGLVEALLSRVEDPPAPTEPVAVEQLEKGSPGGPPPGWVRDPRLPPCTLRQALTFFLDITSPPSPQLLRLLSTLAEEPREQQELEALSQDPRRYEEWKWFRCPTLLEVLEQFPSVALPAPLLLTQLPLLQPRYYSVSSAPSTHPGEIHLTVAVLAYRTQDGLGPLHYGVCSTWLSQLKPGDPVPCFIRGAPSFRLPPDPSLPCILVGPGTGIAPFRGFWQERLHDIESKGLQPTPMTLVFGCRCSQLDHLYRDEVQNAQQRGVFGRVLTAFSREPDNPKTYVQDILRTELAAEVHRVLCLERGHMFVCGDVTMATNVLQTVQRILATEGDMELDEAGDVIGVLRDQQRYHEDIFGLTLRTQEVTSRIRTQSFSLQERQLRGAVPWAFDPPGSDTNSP

in vitro [3] = settings: human, liver microsomes; remark: listed apart in the source
Nitric oxide synthase 1 [4] = molecular target: Nitric oxide synthase 1 (Homo sapiens, UniProt P29475)
Chain of Nitric oxide synthase 1 (Homo sapiens, UniProt P29475) (P29475 whole entry): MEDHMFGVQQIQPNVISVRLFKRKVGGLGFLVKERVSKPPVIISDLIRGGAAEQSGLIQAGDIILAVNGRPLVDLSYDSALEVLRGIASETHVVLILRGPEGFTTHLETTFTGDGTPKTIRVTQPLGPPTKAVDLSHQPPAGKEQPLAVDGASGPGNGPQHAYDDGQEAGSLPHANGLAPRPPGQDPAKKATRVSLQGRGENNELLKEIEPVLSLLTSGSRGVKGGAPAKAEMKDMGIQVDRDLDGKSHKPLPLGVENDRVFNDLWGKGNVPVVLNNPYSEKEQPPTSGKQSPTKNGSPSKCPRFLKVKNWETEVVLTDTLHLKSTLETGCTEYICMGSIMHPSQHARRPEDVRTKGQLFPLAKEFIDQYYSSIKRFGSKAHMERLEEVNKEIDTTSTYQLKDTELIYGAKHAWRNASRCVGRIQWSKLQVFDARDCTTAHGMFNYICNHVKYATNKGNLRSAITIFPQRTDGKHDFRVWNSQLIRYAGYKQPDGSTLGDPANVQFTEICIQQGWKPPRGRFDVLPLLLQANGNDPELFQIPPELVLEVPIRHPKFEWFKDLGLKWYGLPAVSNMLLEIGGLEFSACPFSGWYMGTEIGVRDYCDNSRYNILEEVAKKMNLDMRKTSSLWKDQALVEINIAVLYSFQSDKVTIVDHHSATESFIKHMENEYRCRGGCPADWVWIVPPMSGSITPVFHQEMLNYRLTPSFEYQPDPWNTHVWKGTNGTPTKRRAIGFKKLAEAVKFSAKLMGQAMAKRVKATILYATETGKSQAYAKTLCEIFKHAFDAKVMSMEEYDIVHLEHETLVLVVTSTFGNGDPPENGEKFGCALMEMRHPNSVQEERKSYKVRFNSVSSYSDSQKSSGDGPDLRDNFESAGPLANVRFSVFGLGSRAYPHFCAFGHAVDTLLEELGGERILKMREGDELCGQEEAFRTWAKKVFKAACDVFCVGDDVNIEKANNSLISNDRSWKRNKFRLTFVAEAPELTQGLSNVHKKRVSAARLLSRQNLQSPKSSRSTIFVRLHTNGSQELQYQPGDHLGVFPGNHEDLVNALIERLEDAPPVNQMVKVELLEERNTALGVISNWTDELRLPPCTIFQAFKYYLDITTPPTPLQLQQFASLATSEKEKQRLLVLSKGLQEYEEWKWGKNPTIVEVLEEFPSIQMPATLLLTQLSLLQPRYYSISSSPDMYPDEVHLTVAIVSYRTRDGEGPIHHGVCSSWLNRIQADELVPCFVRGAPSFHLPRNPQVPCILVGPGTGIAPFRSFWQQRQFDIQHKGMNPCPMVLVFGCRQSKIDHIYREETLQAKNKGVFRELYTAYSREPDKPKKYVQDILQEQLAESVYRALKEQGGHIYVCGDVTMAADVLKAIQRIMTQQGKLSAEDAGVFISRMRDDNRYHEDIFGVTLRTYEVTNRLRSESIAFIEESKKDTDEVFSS

in vitro [5] = settings: human, liver microsomes, pH 7.4
Nitric oxide synthase 1 [6] = molecular target: Nitric oxide synthase 1 (Rattus norvegicus, UniProt P29476, D597N)
Chain of Nitric oxide synthase 1 (Rattus norvegicus, UniProt P29476, D597N) (P29476 whole entry D597N): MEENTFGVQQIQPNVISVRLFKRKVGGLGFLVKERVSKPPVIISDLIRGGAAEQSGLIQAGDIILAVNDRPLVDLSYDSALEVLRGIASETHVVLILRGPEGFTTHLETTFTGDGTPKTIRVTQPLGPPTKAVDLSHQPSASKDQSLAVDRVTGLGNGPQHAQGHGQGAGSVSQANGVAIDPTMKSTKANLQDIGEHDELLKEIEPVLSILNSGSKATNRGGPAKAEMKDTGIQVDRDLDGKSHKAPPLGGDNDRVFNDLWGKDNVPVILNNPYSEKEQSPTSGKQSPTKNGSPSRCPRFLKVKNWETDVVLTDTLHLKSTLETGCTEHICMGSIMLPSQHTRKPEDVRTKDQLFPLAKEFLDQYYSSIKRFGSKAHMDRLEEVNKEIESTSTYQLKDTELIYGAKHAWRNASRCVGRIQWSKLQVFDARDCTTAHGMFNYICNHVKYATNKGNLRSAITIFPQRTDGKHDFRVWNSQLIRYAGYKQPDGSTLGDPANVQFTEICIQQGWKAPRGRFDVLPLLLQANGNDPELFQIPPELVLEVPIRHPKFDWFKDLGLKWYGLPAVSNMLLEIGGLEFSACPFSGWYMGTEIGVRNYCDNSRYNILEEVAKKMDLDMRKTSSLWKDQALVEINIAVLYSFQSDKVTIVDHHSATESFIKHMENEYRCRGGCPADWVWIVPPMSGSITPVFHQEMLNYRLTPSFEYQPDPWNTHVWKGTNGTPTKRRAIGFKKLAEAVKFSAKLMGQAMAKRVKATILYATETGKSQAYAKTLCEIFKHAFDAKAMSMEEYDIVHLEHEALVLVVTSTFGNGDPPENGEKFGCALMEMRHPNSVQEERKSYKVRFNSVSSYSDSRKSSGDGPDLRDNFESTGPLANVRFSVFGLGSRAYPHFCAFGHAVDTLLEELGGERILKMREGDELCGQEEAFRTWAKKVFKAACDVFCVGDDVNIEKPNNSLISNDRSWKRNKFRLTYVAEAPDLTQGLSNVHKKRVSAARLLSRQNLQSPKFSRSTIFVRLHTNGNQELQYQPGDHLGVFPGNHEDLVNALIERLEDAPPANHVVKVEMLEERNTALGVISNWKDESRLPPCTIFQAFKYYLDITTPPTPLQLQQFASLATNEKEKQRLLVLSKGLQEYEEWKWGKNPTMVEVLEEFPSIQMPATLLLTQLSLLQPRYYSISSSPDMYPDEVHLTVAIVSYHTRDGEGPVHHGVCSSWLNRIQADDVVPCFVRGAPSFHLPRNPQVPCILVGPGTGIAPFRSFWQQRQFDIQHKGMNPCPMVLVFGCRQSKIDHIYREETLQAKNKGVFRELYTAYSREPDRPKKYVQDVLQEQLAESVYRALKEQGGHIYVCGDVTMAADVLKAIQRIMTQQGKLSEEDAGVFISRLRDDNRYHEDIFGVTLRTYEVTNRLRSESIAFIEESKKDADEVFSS

in vitro [7] = settings: human, liver microsomes; remark: listed apart in the source
Nitric oxide synthase 1 [8] = molecular target: Nitric oxide synthase 1 (Rattus norvegicus, UniProt P29476)
Chain of Nitric oxide synthase 1 (Rattus norvegicus, UniProt P29476) (P29476 whole entry): as the sequence (P29476 whole entry D597N) above, with N597D counted along it

Chain of Nitric oxide synthase, inducible (P35228 whole entry): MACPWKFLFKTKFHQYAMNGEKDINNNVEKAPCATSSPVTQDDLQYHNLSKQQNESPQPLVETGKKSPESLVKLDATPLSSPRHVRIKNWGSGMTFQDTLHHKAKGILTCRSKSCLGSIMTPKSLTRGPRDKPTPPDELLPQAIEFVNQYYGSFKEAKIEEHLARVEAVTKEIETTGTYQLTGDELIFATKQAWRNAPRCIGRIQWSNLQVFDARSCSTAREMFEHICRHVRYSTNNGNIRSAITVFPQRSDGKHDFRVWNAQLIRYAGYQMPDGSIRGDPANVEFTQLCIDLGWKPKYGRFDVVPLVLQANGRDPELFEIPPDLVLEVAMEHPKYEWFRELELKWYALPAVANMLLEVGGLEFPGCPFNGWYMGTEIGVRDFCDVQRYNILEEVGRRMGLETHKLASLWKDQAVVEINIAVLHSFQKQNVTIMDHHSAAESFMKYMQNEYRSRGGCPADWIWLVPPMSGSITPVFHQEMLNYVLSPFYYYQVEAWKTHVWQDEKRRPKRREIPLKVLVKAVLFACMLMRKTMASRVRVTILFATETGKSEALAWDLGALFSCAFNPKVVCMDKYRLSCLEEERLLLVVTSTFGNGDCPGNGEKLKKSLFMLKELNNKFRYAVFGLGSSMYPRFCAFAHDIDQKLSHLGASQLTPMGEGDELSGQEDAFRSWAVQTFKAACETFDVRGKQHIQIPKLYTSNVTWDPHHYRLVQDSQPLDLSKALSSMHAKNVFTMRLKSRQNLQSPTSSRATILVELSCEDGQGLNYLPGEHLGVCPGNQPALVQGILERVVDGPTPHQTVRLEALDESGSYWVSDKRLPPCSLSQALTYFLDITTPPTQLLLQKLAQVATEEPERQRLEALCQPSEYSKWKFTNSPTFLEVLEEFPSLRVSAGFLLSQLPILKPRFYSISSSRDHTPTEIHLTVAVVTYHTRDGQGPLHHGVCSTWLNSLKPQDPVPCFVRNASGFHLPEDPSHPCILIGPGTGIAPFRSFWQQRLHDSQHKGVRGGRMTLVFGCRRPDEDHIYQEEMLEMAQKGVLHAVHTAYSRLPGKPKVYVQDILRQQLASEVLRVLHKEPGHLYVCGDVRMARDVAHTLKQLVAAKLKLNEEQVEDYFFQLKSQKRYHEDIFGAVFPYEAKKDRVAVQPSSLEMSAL

- Ki [1]: 29900 nM
- CLint scaled at 1 h, 1.426 µM (in vitro [2]): 8 mL/min/kg
- Ki (Nitric oxide synthase 3): 52600 nM
- remaining at 1 h, 1.426 µM (in vitro [3]): 87%
- Ki (Nitric oxide synthase 1 [4]): 60 nM
- remaining at 1 h, 1.426 µM (in vitro [5]): 67%
- Ki (Nitric oxide synthase 1 [6]): 416 nM
- half-life at 1 h, 1.426 µM (in vitro [7]): > 1 h
- Ki (Nitric oxide synthase 1 [8]): 55 nM
SMILES: Cc1cc(N)nc2cc(-c3cccc(CN)c3)ccc12.Cl.Cl
